Experimental data reported in patent US12252524B2, “GIP/GLP1 co-agonist compounds” (Eli Lilly and Company, priority 2018, dated 2025).
Numbered stars: 1 amine (or outer) side, 2 acyl side, 3 side chain; on linkers, the order of the positions; unused ones are H or OH. Square brackets hold non-standard residues; d marks the D form. Side chains are listed from the residue outwards. Peptide text beside a SMILES is read from it. * marks the point of attachment. C20 diacid = O=C(O)CCCCCCCCCCCCCCCCCCC(=O)*; αMePhe(2-F) = C[C@](N)(Cc1ccccc1F)C(=O)O; γGlu = O=C(O)[C@H](CCC(=O)[*:2])N[*:1]; Aad = N[C@@H](CCCC(=O)O)C(=O)O; αMeL = CC(C)C[C@](C)(N)C(=O)O; AEEA = NCCOCCOCC(=O)O; Aib = CC(C)(N)C(=O)O

Tests used:
[1] = target: human GLP-1 receptor (GLP-1R) (Homo sapiens, UniProt P43220); experiment: cAMP pharmacological functional assay in presence of casein, hGLP-1R; format: cell-based; conditions: HEK293 cells expressing hGLP-1R, 0.1% Casein, geometric mean; read-out: hGLP1R cAMP Rel EC50 nM (SEM, n)
[2] = target: T1, human Gcg receptor (Homo sapiens, UniProt P47871); experiment: [125I]-Glucagon binding (SPA), human Gcg receptor; conditions: read-out: hGLcgR Ki, nM (SEM, n)
T1 construct: expressed in transfected cells; crude membranes
In short: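 Scintillation counts are taken after membranes and WGA beads incubate and settle for 12 hours at room temperature. Buffer is 25 mM HEPES, pH 7.4, with CaCl2, MgCl2, bacitracin and Tween-20. Ki values, from four-parameter IC50 fits, are geometric means over independent days.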

[3] = target: T2, gastric inhibitory peptide receptor (GIPR) (Homo sapiens, UniProt P48546); experiment: cAMP pharmacological functional assay in presence of casein, hGIPR; format: cell-based; conditions: HEK293 cells expressing hGIPR, 0.1% Casein, geometric mean; read-out: hGIPR cAMP Rel EC50 nM (SEM, n)
T2 sequence (P48546 22-466): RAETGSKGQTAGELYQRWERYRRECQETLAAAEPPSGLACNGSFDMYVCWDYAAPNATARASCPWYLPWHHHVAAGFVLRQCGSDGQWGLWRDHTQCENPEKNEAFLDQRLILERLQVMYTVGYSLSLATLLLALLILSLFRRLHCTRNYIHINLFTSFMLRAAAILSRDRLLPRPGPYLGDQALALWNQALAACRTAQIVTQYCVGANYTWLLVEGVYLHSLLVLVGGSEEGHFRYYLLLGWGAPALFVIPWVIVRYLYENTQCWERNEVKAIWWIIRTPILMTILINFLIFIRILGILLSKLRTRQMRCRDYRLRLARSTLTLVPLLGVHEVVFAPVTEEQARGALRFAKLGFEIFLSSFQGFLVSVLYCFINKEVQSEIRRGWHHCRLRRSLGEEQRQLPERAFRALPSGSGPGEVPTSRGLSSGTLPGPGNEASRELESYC

[4] = target: human GLP-1R (Homo sapiens, UniProt P43220); experiment: [125I]-GLP-1 binding (SPA), human GLP-1 receptor; parameters: expressed in transfected cells; crude membranes; conditions: read-out: hGLP1R Ki, (nM) (SEM, n)
In short: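 Ki values are geometric means with SEM over independent replicates on different days, derived from IC50s fitted by four-parameter nonlinear regression. The assay used crude cell membranes in HEPES buffer, pH 7.4, containing CaCl2, MgCl2, bacitracin and TWEEN-20.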

[5] = target: T3, human GIP receptor (Homo sapiens, UniProt P48546); experiment: [125I]-GIP binding (SPA), human GIP receptor; conditions: read-out: hGIPR Ki, nM (SEM, n)
T3 construct: expressed in transfected cells; crude membranes
T3 sequence (P48546 22-466): T2 sequence (P48546 22-466)

T1 sequence (P47871 26-477): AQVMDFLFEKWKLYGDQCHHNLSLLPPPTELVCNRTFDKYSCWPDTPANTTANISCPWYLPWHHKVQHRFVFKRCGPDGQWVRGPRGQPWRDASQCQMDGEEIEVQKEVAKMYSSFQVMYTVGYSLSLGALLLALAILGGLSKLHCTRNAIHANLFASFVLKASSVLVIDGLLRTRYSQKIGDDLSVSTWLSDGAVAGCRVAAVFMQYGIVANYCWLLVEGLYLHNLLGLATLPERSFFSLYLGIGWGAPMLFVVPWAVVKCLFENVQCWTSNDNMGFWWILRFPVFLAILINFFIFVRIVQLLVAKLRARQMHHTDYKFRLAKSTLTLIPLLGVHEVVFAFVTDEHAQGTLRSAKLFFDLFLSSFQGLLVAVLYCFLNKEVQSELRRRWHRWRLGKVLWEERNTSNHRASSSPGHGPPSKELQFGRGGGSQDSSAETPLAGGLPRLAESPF
Sequence of human GLP-1R (P43220 24-463): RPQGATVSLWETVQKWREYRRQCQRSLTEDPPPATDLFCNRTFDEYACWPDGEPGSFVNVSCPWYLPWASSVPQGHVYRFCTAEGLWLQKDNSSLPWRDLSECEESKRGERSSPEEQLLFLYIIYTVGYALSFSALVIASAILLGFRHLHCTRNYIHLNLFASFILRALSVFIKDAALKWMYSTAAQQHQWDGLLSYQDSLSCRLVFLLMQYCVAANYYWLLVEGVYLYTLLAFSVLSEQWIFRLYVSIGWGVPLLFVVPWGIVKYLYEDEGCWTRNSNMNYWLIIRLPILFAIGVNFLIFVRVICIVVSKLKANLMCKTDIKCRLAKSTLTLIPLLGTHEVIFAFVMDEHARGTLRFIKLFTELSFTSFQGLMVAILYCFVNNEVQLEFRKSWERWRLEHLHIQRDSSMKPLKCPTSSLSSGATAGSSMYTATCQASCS
Sequence of human GLP-1 receptor (GLP-1R) (P43220 24-463): as above

| SMILES | EC50 [1] [nM] | Ki [2] [nM] | EC50 [3] [nM] | Ki [4] [nM] | Ki [5] [nM] |
| --- | --- | --- | --- | --- | --- |
| CC[C@H](C)[C@H](NC(=O)[C@H](CC(C)C)NC(=O)[C@H](Cc1ccc(O)cc1)NC(=O)[C@H](CCCC(=O)O)NC(=O)[C@@H](NC(=O)[C@H](Cc1ccccc1)NC(=O)[C@H](CCC(=O)O)NC(=O)C(C)(C)NC(=O)[C@H](CCC(N)=O)NC(=O)[C@H](C)NC(=O)[C@H](CCCCNC(=O)COCCOCCNC(=O)COCCOCCNC(=O)CC[C@H](NC(=O)CCCCCCCCCCCCCCCCCCC(=O)O)C(=O)O)NC(=O)[C@H](CCC(=O)O)NC(=O)[C@H](CC(=O)O)NC(=O)[C@H](CC(C)C)NC(=O)[C@](C)(CC(C)C)NC(=O)[C@@H](NC(=O)[C@H](CO)NC(=O)[C@H](Cc1ccc(O)cc1)NC(=O)[C@H](CC(=O)O)NC(=O)[C@H](CO)NC(=O)[C@@H](NC(=O)[C@](C)(Cc1ccccc1F)NC(=O)[C@@H](NC(=O)CNC(=O)[C@H](CCC(=O)O)NC(=O)C(C)(C)NC(=O)[C@@H](N)Cc1ccc(O)cc1)[C@@H](C)O)[C@@H](C)O)[C@@H](C)CC)[C@@H](C)CC)C(=O)N[C@@H](CCC(=O)O)C(=O)NCC(=O)NCC(=O)N1CCC[C@H]1C(=O)N[C@@H](CO)C(=O)N[C@@H](CO)C(=O)NCC(=O)N[C@@H](C)C(=O)N1CCC[C@H]1C(=O)N1CCC[C@H]1C(=O)N1CCC[C@H]1C(=O)N[C@@H](CO)C(N)=O [Example 147] (H-Y[Aib]EGT[αMePhe(2-F)]TSDYSI[αMeL]LDEK([AEEA-AEEA-γGlu-C20 diacid])AQ[Aib]EFI[Aad]YLIEGGPSSGAPPPS-NH2) | 0.0527 | 64.9 | 0.0304 | 4.47 | 0.0981 |
| CC[C@H](C)[C@H](NC(=O)[C@H](CC(C)C)NC(=O)[C@H](Cc1ccc(O)cc1)NC(=O)[C@@H](NC(=O)[C@@H](NC(=O)[C@H](Cc1ccccc1)NC(=O)[C@H](CCC(=O)O)NC(=O)C(C)(C)NC(=O)[C@H](CCC(N)=O)NC(=O)[C@H](C)NC(=O)[C@H](CCCCNC(=O)COCCOCCNC(=O)COCCOCCNC(=O)CC[C@H](NC(=O)CCCCCCCCCCCCCCCCCCC(=O)O)C(=O)O)NC(=O)[C@H](CCC(=O)O)NC(=O)[C@H](CC(=O)O)NC(=O)[C@H](CC(C)C)NC(=O)[C@](C)(CC(C)C)NC(=O)[C@@H](NC(=O)[C@H](CO)NC(=O)[C@H](Cc1ccc(O)cc1)NC(=O)[C@H](CC(=O)O)NC(=O)[C@H](CO)NC(=O)[C@@H](NC(=O)[C@](C)(Cc1ccccc1F)NC(=O)[C@@H](NC(=O)CNC(=O)[C@H](CCC(=O)O)NC(=O)C(C)(C)NC(=O)[C@@H](N)Cc1ccc(O)cc1)[C@@H](C)O)[C@@H](C)O)[C@@H](C)CC)[C@@H](C)CC)C(C)C)C(=O)N[C@@H](CCC(=O)O)C(=O)NCC(=O)NCC(=O)N1CCC[C@H]1C(=O)N[C@@H](CO)C(=O)N[C@@H](CO)C(=O)NCC(=O)N[C@@H](C)C(=O)N1CCC[C@H]1C(=O)N1CCC[C@H]1C(=O)N1CCC[C@H]1C(=O)N[C@@H](CO)C(N)=O [Example 149] (H-Y[Aib]EGT[αMePhe(2-F)]TSDYSI[αMeL]LDEK([AEEA-AEEA-γGlu-C20 diacid])AQ[Aib]EFIVYLIEGGPSSGAPPPS-NH2) | 0.0916 | 127 | 0.0711 | 26.1 | 0.0708 |
| CC[C@H](C)[C@H](NC(=O)[C@H](CC(C)C)NC(=O)[C@H](Cc1ccc(O)cc1)NC(=O)[C@H](CO)NC(=O)[C@@H](NC(=O)[C@H](Cc1ccccc1)NC(=O)[C@H](CCC(=O)O)NC(=O)C(C)(C)NC(=O)[C@H](CCC(N)=O)NC(=O)[C@H](C)NC(=O)[C@H](CCCCNC(=O)COCCOCCNC(=O)COCCOCCNC(=O)CC[C@H](NC(=O)CCCCCCCCCCCCCCCCCCC(=O)O)C(=O)O)NC(=O)[C@H](CCC(=O)O)NC(=O)[C@H](CC(=O)O)NC(=O)[C@H](CC(C)C)NC(=O)[C@](C)(CC(C)C)NC(=O)[C@@H](NC(=O)[C@H](CO)NC(=O)[C@H](Cc1ccc(O)cc1)NC(=O)[C@H](CC(=O)O)NC(=O)[C@H](CO)NC(=O)[C@@H](NC(=O)[C@](C)(Cc1ccccc1F)NC(=O)[C@@H](NC(=O)CNC(=O)[C@H](CCC(=O)O)NC(=O)C(C)(C)NC(=O)[C@@H](N)Cc1ccc(O)cc1)[C@@H](C)O)[C@@H](C)O)[C@@H](C)CC)[C@@H](C)CC)C(=O)N[C@@H](CCC(=O)O)C(=O)NCC(=O)NCC(=O)N1CCC[C@H]1C(=O)N[C@@H](CO)C(=O)N[C@@H](CO)C(=O)NCC(=O)N[C@@H](C)C(=O)N1CCC[C@H]1C(=O)N1CCC[C@H]1C(=O)N1CCC[C@H]1C(=O)N[C@@H](CO)C(N)=O [Example 150] (H-Y[Aib]EGT[αMePhe(2-F)]TSDYSI[αMeL]LDEK([AEEA-AEEA-γGlu-C20 diacid])AQ[Aib]EFISYLIEGGPSSGAPPPS-NH2) | 0.0575 | 63.2 | 0.0511 | 30.5 | 0.0649 |
| CC[C@H](C)[C@H](NC(=O)[C@H](CC(C)C)NC(=O)[C@H](Cc1ccc(O)cc1)NC(=O)C(C)(C)NC(=O)[C@@H](NC(=O)[C@H](Cc1ccccc1)NC(=O)[C@H](CCC(=O)O)NC(=O)C(C)(C)NC(=O)[C@H](CCC(N)=O)NC(=O)[C@H](C)NC(=O)[C@H](CCCCNC(=O)COCCOCCNC(=O)COCCOCCNC(=O)CC[C@H](NC(=O)CCCCCCCCCCCCCCCCCCC(=O)O)C(=O)O)NC(=O)[C@H](CCC(=O)O)NC(=O)[C@H](CC(=O)O)NC(=O)[C@H](CC(C)C)NC(=O)[C@](C)(CC(C)C)NC(=O)[C@@H](NC(=O)[C@H](CO)NC(=O)[C@H](Cc1ccc(O)cc1)NC(=O)[C@H](CC(=O)O)NC(=O)[C@H](CO)NC(=O)[C@@H](NC(=O)[C@](C)(Cc1ccccc1F)NC(=O)[C@@H](NC(=O)CNC(=O)[C@H](CCC(=O)O)NC(=O)C(C)(C)NC(=O)[C@@H](N)Cc1ccc(O)cc1)[C@@H](C)O)[C@@H](C)O)[C@@H](C)CC)[C@@H](C)CC)C(=O)N[C@@H](CCC(=O)O)C(=O)NCC(=O)NCC(=O)N1CCC[C@H]1C(=O)N[C@@H](CO)C(=O)N[C@@H](CO)C(=O)NCC(=O)N[C@@H](C)C(=O)N1CCC[C@H]1C(=O)N1CCC[C@H]1C(=O)N1CCC[C@H]1C(=O)N[C@@H](CO)C(N)=O [Example 152] (H-Y[Aib]EGT[αMePhe(2-F)]TSDYSI[αMeL]LDEK([AEEA-AEEA-γGlu-C20 diacid])AQ[Aib]EFI[Aib]YLIEGGPSSGAPPPS-NH2) | 0.0915 | 93.4 | 0.0504 | 48 | 0.117 |
| CC[C@H](C)[C@H](NC(=O)[C@H](CC(C)C)NC(=O)[C@H](Cc1ccc(O)cc1)NC(=O)[C@H](Cc1c[nH]cn1)NC(=O)[C@@H](NC(=O)[C@H](Cc1ccccc1)NC(=O)[C@H](CCC(=O)O)NC(=O)C(C)(C)NC(=O)[C@H](CCC(N)=O)NC(=O)[C@H](C)NC(=O)[C@H](CCCCNC(=O)COCCOCCNC(=O)COCCOCCNC(=O)CC[C@H](NC(=O)CCCCCCCCCCCCCCCCCCC(=O)O)C(=O)O)NC(=O)[C@H](CCC(=O)O)NC(=O)[C@H](CC(=O)O)NC(=O)[C@H](CC(C)C)NC(=O)[C@](C)(CC(C)C)NC(=O)[C@@H](NC(=O)[C@H](CO)NC(=O)[C@H](Cc1ccc(O)cc1)NC(=O)[C@H](CC(=O)O)NC(=O)[C@H](CO)NC(=O)[C@@H](NC(=O)[C@](C)(Cc1ccccc1F)NC(=O)[C@@H](NC(=O)CNC(=O)[C@H](CCC(=O)O)NC(=O)C(C)(C)NC(=O)[C@@H](N)Cc1ccc(O)cc1)[C@@H](C)O)[C@@H](C)O)[C@@H](C)CC)[C@@H](C)CC)C(=O)N[C@@H](CCC(=O)O)C(=O)NCC(=O)NCC(=O)N1CCC[C@H]1C(=O)N[C@@H](CO)C(=O)N[C@@H](CO)C(=O)NCC(=O)N[C@@H](C)C(=O)N1CCC[C@H]1C(=O)N1CCC[C@H]1C(=O)N1CCC[C@H]1C(=O)N[C@@H](CO)C(N)=O [Example 153] (H-Y[Aib]EGT[αMePhe(2-F)]TSDYSI[αMeL]LDEK([AEEA-AEEA-γGlu-C20 diacid])AQ[Aib]EFIHYLIEGGPSSGAPPPS-NH2; N-terminus assumed) | 0.0904 | 43.8 | 0.0634 | 22.2 | 0.0578 |
